Measurements reported in patent US8084649B2, “Herbicides” (Syngenta Crop Protection, inc., priority 2007, dated 2011).

Tested on: Digitaria sanguinalis (DIGSA)
Test: Pre-emergence herbicidal activity, glasshouse pot test
Type: in vivo
Settings: Digitaria sanguinalis, 480 h, rate 500 g/ha, evaluated after 20 days, read-out: Pre-emergence activity, DIGSA (100=total damage to plant; 0=no damage to plant)
Experimental: (§1) Monocotyledonous and dicotyledonous test plants were sown in sterilised standard soil in pots. After cultivation for one day (pre-emergence) or after 10 days cultivation (post-emergence) under controlled conditions in a glasshouse, the plants were sprayed with an aqueous spray solution derived from the formulation of the technical active ingredient in 0.6 ml acetone and 45 ml formulation solution containing 10.6% Emulsogen EL (Registry number 61791-12-6), 42.2% N-methylpyrrolidone, 42.2% dipropylene glycol monomethyl ether (Registry number 34590-94-8) and 0.2% X-77 (Registry number 11097-66-8). The test plants were then grown in a greenhouse under optimum conditions until, 14 or 15 days later for post-emergence and 20 days for pre-emergence, the test was evaluated (100=total damage to plant; 0=no damage to plant). Alopecurus myosuroides (ALOMY), Avena fatua (AVEFA), Lolium perenne (LOLPE), Setaria faberi (SETFA), Digitaria sanguinalis (DIGSA), Echinochloa crus-galli (ECHCG) Pre-Emergence Activity

Structure (SMILES) | pest or weed control at 500 g/ha
C#CCOC(=O)OC1=C(c2c(CC)cc(C)cc2CC)C(=O)CC2(CCOCC2)C1 [Compound P22] | 100%
CCc1cc(C)cc(C)c1C1=C(O)CC2(CCOCC2)CC1=O [Compound T27] | 100%

Tested on: Lolium perenne (LOLPE)
Test: as above
Type: in vivo
Settings: Lolium perenne, 480 h, rate 500 g/ha, evaluated after 20 days, read-out: Pre-emergence activity, LOLPE (100=total damage to plant; 0=no damage to plant)
Experimental: as §1

Structure (SMILES) | pest or weed control at 500 g/ha
C#CCOC(=O)OC1=C(c2c(CC)cc(C)cc2CC)C(=O)CC2(CCOCC2)C1 [Compound P22] | 100%
CCc1cc(C)cc(C)c1C1=C(O)CC2(CCOCC2)CC1=O [Compound T27] | 100%

Tested on: Avena fatua (AVEFA)
Test: as above
Type: in vivo
Settings: Avena fatua, 480 h, rate 500 g/ha, evaluated after 20 days, read-out: Pre-emergence activity, AVEFA (100=total damage to plant; 0=no damage to plant)
Experimental: as §1

Structure (SMILES) | pest or weed control at 500 g/ha
C#CCOC(=O)OC1=C(c2c(CC)cc(C)cc2CC)C(=O)CC2(CCOCC2)C1 [Compound P22] | 100%
CCc1cc(C)cc(C)c1C1=C(O)CC2(CCOCC2)CC1=O [Compound T27] | 100%

Tested on: Echinochloa crus-galli (ECHCG)
Test: as above
Type: in vivo
Settings: Echinochloa crus-galli, 480 h, rate 500 g/ha, evaluated after 20 days, read-out: Pre-emergence activity, ECHCG (100=total damage to plant; 0=no damage to plant)
Experimental: as §1

Structure (SMILES) | pest or weed control at 500 g/ha
C#CCOC(=O)OC1=C(c2c(CC)cc(C)cc2CC)C(=O)CC2(CCOCC2)C1 [Compound P22] | 100%
CCc1cc(C)cc(C)c1C1=C(O)CC2(CCOCC2)CC1=O [Compound T27] | 100%

Tested on: Alopecurus myosuroides (ALOMY)
Test: as above
Type: in vivo
Settings: Alopecurus myosuroides, 480 h, rate 500 g/ha, evaluated after 20 days, read-out: Pre-emergence activity, ALOMY (100=total damage to plant; 0=no damage to plant)
Experimental: as §1

Structure (SMILES) | pest or weed control at 500 g/ha
C#CCOC(=O)OC1=C(c2c(CC)cc(C)cc2CC)C(=O)CC2(CCOCC2)C1 [Compound P22] | 100%
CCc1cc(C)cc(C)c1C1=C(O)CC2(CCOCC2)CC1=O [Compound T27] | 100%

Tested on: Setaria faberi (SETFA)
Test: as above
Type: in vivo
Settings: Setaria faberi, 480 h, rate 500 g/ha, evaluated after 20 days, read-out: Pre-emergence activity, SETFA (100=total damage to plant; 0=no damage to plant)
Experimental: as §1

Structure (SMILES) | pest or weed control at 500 g/ha
C#CCOC(=O)OC1=C(c2c(CC)cc(C)cc2CC)C(=O)CC2(CCOCC2)C1 [Compound P22] | 100%
CCc1cc(C)cc(C)c1C1=C(O)CC2(CCOCC2)CC1=O [Compound T27] | 100%

Tested on: Digitaria sanguinalis (DIGSA)
Test: Post-emergence herbicidal activity, glasshouse pot test
Type: in vivo
Settings: Digitaria sanguinalis, rate 125 g/ha, evaluated after 14 or 15 days, read-out: Post-emergence activity, DIGSA (100=total damage to plant; 0=no damage to plant)
Experimental: as §1, with “Post-Emergence” for “Pre-Emergence”

Structure (SMILES) | pest or weed control at 125 g/ha
C#CCOC(=O)OC1=C(c2c(CC)cc(C)cc2CC)C(=O)CC2(CCOCC2)C1 [Compound P22] | 100%

Same assay, conditions: Digitaria sanguinalis, rate 500 g/ha, evaluated after 14 or 15 days, read-out: Post-emergence activity, DIGSA (100=total damage to plant; 0=no damage to plant)

Structure (SMILES) | pest or weed control at 500 g/ha
CCc1cc(C)cc(C)c1C1=C(O)CC2(CCOCC2)CC1=O [Compound T27] | 90%

Tested on: Lolium perenne (LOLPE)
Test: as above
Type: in vivo
Settings: Lolium perenne, rate 125 g/ha, evaluated after 14 or 15 days, read-out: Post-emergence activity, LOLPE (100=total damage to plant; 0=no damage to plant)
Experimental: as §1, with “Post-Emergence” for “Pre-Emergence”

Structure (SMILES) | pest or weed control at 125 g/ha
C#CCOC(=O)OC1=C(c2c(CC)cc(C)cc2CC)C(=O)CC2(CCOCC2)C1 [Compound P22] | 90%

Same assay, conditions: Lolium perenne, rate 500 g/ha, evaluated after 14 or 15 days, read-out: Post-emergence activity, LOLPE (100=total damage to plant; 0=no damage to plant)

Structure (SMILES) | pest or weed control at 500 g/ha
CCc1cc(C)cc(C)c1C1=C(O)CC2(CCOCC2)CC1=O [Compound T27] | 80%

Tested on: Avena fatua (AVEFA)
Test: as above
Type: in vivo
Settings: Avena fatua, rate 125 g/ha, evaluated after 14 or 15 days, read-out: Post-emergence activity, AVEFA (100=total damage to plant; 0=no damage to plant)
Experimental: as §1, with “Post-Emergence” for “Pre-Emergence”

Structure (SMILES) | pest or weed control at 125 g/ha
C#CCOC(=O)OC1=C(c2c(CC)cc(C)cc2CC)C(=O)CC2(CCOCC2)C1 [Compound P22] | 100%

Same assay, conditions: Avena fatua, rate 500 g/ha, evaluated after 14 or 15 days, read-out: Post-emergence activity, AVEFA (100=total damage to plant; 0=no damage to plant)

Structure (SMILES) | pest or weed control at 500 g/ha
CCc1cc(C)cc(C)c1C1=C(O)CC2(CCOCC2)CC1=O [Compound T27] | 90%

Tested on: Echinochloa crus-galli (ECHCG)
Test: as above
Type: in vivo
Settings: Echinochloa crus-galli, rate 125 g/ha, evaluated after 14 or 15 days, read-out: Post-emergence activity, ECHCG (100=total damage to plant; 0=no damage to plant)
Experimental: as §1, with “Post-Emergence” for “Pre-Emergence”

Structure (SMILES) | pest or weed control at 125 g/ha
C#CCOC(=O)OC1=C(c2c(CC)cc(C)cc2CC)C(=O)CC2(CCOCC2)C1 [Compound P22] | 90%

Same assay, conditions: Echinochloa crus-galli, rate 500 g/ha, evaluated after 14 or 15 days, read-out: Post-emergence activity, ECHCG (100=total damage to plant; 0=no damage to plant)

Structure (SMILES) | pest or weed control at 500 g/ha
CCc1cc(C)cc(C)c1C1=C(O)CC2(CCOCC2)CC1=O [Compound T27] | 100%

Tested on: Alopecurus myosuroides (ALOMY)
Test: as above
Type: in vivo
Settings: Alopecurus myosuroides, rate 125 g/ha, evaluated after 14 or 15 days, read-out: Post-emergence activity, ALOMY (100=total damage to plant; 0=no damage to plant)
Experimental: as §1, with “Post-Emergence” for “Pre-Emergence”

Structure (SMILES) | pest or weed control at 125 g/ha
C#CCOC(=O)OC1=C(c2c(CC)cc(C)cc2CC)C(=O)CC2(CCOCC2)C1 [Compound P22] | 90%

Same assay, conditions: Alopecurus myosuroides, rate 500 g/ha, evaluated after 14 or 15 days, read-out: Post-emergence activity, ALOMY (100=total damage to plant; 0=no damage to plant)

Structure (SMILES) | pest or weed control at 500 g/ha
CCc1cc(C)cc(C)c1C1=C(O)CC2(CCOCC2)CC1=O [Compound T27] | 80%

Tested on: Setaria faberi (SETFA)
Test: as above
Type: in vivo
Settings: Setaria faberi, rate 125 g/ha, evaluated after 14 or 15 days, read-out: Post-emergence activity, SETFA (100=total damage to plant; 0=no damage to plant)
Experimental: as §1, with “Post-Emergence” for “Pre-Emergence”

Structure (SMILES) | pest or weed control at 125 g/ha
C#CCOC(=O)OC1=C(c2c(CC)cc(C)cc2CC)C(=O)CC2(CCOCC2)C1 [Compound P22] | 90%

Same assay, conditions: Setaria faberi, rate 500 g/ha, evaluated after 14 or 15 days, read-out: Post-emergence activity, SETFA (100=total damage to plant; 0=no damage to plant)

Structure (SMILES) | pest or weed control at 500 g/ha
CCc1cc(C)cc(C)c1C1=C(O)CC2(CCOCC2)CC1=O [Compound T27] | 100%
